What follows are compounds tested against T1, D4 human receptors (Homo sapiens, UniProt P21917) (assay: D4 Radioligand Receptor Binding Assay ([3H] YM-09151-2, CHO cell membranes)). Settings: compound at 10^-7 M, singlicate; [3H] YM-09151-2 0.15-0.25 nM; read-out: D4 receptor binding assay % inhib. (10^-7 M).
T1 construct: expressed in transfected cells; host or cells: CHO cells
T1 sequence (P21917 1-419): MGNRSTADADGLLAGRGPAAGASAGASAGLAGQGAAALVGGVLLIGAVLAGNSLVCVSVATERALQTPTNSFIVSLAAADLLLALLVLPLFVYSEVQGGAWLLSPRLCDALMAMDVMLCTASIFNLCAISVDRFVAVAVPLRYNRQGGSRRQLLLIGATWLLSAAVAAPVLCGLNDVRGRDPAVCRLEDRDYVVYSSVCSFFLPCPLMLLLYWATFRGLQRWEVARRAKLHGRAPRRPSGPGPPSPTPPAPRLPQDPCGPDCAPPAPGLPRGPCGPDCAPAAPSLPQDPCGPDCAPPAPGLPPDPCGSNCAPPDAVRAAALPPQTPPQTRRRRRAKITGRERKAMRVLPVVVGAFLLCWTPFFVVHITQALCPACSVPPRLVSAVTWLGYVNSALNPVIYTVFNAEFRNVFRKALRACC
Protocol: Membranes from CHO cells, expressing D4 human receptors were suspended in incubation buffer.
Binding assays were performed in MultiProbe 204 pipetting system (Packard), according to a predetermined mapping, consistent with the software Screen. The compounds were tested in singlicate at one concentration (10^-7 M) in a total volume of 1000 µl (980 µl of diluted membranes, 10 µl DMSO or unlabelled ligand and 10 µl of [^3H] YM-09151-2 (0.15-0.25 nM). After incubation for 120 min at 27 °C, the reaction was stopped by rapid filtration through Tomtec cell Harvester (48 wells) using Filtermat B (presoaked in 0.1% PEI) filters. Filters were washed with ice-cold 50 mM Tris-HCl (pH 7.4) buffer (9 x 700 µl), dryed, covered with MeltiLex B/HS (Wallac) scintillator sheets and heated in oven at 80-90 °C for about 10 min, transferred into plastic sample bags (Wallac), sealed and put into 1024 Beta Plate scintillation counter (Wallac). Non specific binding was determined in the presence of clozapine dissolved in DMSO to a final concentration of 10^-5 M.
(§1) The specific radioligand binding to the receptor was defined by the difference between total binding and non specific binding, determined in the presence of an excess of unlabelled ligand. Results were expressed as percentage of control specific binding obtained in the presence of the compounds.

Structure (SMILES) | inhibition at 0.1 µM
COCCn1c(=O)n(CCCCN2CCN(c3cccc(Cl)c3)CC2)c2ccccc21 [compound 5] | 54%
Cc1cccc(N2CCN(CCCCn3c(=O)n(CCN4CCCCC4)c4ccccc43)CC2)c1C [compound 37] | 54%
O=c1n(CCO)c2ccccc2n1CCCCN1CCN(c2cccc(Cl)c2)CC1 [compound 60] | 82%
O=c1n(CCO)c2ccccc2n1CCCCN1CCN(c2cccc(C(F)(F)F)c2)CC1 [compound 64] | 43%
Cc1cccc(N2CCN(CCn3c(=O)n(CCN4CCCCC4)c4ccccc43)CC2)c1C [compound 158] | 72%
COCCn1c(=O)n(CCN2CCN(c3cccc(Cl)c3)CC2)c2ccccc21 [compound 164] | 41%
O=c1n(CCO)c2ccccc2n1CCN1CCN(c2cccc(C(F)(F)F)c2)CC1 [compound 187] | 36%
CCNC(=O)OCCn1c(=O)n(CCN2CCN(c3ccccc3Cl)CC2)c2ccccc21 [compound 219] | 37%
O=c1n(C/C=C\CN2CCN(c3ccccc3)CC2)c2ccccc2n1CCN1CCCCC1 [compound 310] | 49%
O=c1n(C/C=C\CN2CCN(c3cccc(C(F)(F)F)c3)CC2)c2ccccc2n1CCN1CCCCC1 [compound 318] | 36%
O=c1n(C/C=C/CN2CCN(c3ccccn3)CC2)c2ccccc2n1CCN1CCCCC1 [compound 330] | 84%
O=c1n(C/C=C/CN2CCc3c([nH]c4ccccc34)C2)c2ccccc2n1CCN1CCCCC1 [compound 333] | 80%
O=c1n(C/C=C/CN2CCN(c3cccc(C(F)(F)F)c3)CC2)c2ccccc2n1CCN1CCCCC1 [compound 335] | 55%
O=c1n(C/C=C\CN2CCN(c3cccc(C(F)(F)F)c3)CC2)c2ccccc2n1CCO [compound 369] | 59%
O=c1n(C/C=C\CN2CC=C(c3ccccc3)CC2)c2ccccc2n1CCO [compound 370] | 60%
CCNC(=O)OCCn1c(=O)n(CC=CCN2CC=C(c3ccccc3)CC2)c2ccccc21 [compound 404] | 34%

The compounds below were run against T2, CHO/5-HT1A cells (Homo sapiens, UniProt P08908) (assay: 5-HT1A Functional assay (cAMP)). Settings: 10 µM compound; % inhibition of the cAMP accumulation induced by 10 µM FSK.
T2 construct: expressed in transfected cells; host or cells: CHO/5-HT1A cells
T2 sequence (P08908 1-422): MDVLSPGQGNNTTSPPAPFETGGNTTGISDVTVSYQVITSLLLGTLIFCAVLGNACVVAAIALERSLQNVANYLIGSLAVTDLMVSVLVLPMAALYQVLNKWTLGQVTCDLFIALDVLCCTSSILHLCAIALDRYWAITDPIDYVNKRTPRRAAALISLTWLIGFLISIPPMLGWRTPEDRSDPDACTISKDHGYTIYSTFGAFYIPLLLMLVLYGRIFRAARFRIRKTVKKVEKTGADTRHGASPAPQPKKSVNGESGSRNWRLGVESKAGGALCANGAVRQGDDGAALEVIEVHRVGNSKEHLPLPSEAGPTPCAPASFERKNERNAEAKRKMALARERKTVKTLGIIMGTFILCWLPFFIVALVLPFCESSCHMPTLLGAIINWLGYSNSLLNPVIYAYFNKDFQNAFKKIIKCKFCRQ
Type: cell-based
Protocol: CHO/5-HT1A cells were random seeded at a density of about 200,000/well in 24 well plates the day prior to the experiment. On the day of the experiment, cells were pretreated for 15 min at 37 °C with 500 µM isobuthylmethylxantine (IBMX) dissolved in culture medium without serum. Wells were then divided in different groups in duplicate as follows: control, 10 µM FSK, 10 µM FSK + 1 µM 5-HT as positive standard and 10 µM FSK + 10 µM of the different compound under evaluation. Sample solutions were added and incubated for additional 15 min at 37 °C. After incubation, medium was aspirated and the reaction stopped by adding 200 µl of lysis buffer. Plates were shaken for 5 min, then the lysate was removed and samples were stored at 4 °C until the day of the assay. For the cAMP evaluation, samples were properly diluted and the cAMP content was measured by an enzymeimmunoassay system.

Structure (SMILES) | 5-HT1A cAMP % inhib.
CCNC(=O)OCCn1c(=O)n(CC=CCN2CCN(c3cccc(C(F)(F)F)c3)CC2)c2ccccc21 [compound 420] | 87%
CCNC(=O)OCCn1c(=O)n(CC=CCN2CC=C(c3ccccc3)CC2)c2ccccc21 [compound 421] | 56%

Same assay, conditions: 10 µM compound; % inhibition of the cAMP accumulation induced by 10 µM FSK; read-out: 5-HT1A cAMP % inhib.

Structure (SMILES) | inhibition at 10 µM
COCCn1c(=O)n(CCCCN2CCN(c3cccc(Cl)c3)CC2)c2ccccc21 [compound 5] | 63%
Cc1cccc(N2CCN(CCCCn3c(=O)n(CCN4CCCCC4)c4ccccc43)CC2)c1C [compound 37] | 44%
O=c1n(CCO)c2ccccc2n1CCCCN1CCN(c2cccc(Cl)c2)CC1 [compound 60] | 65%
O=c1n(CCO)c2ccccc2n1CCCCN1CCN(c2cccc(C(F)(F)F)c2)CC1 [compound 64] | 52%
Cc1cccc(N2CCN(CCn3c(=O)n(CCN4CCCCC4)c4ccccc43)CC2)c1C [compound 158] | 48%
COCCn1c(=O)n(CCN2CCN(c3cccc(Cl)c3)CC2)c2ccccc21 [compound 164] | 73%
O=c1n(CCO)c2ccccc2n1CCN1CCN(c2cccc(C(F)(F)F)c2)CC1 [compound 187] | 44%
CCNC(=O)OCCn1c(=O)n(CCN2CCN(c3ccccc3Cl)CC2)c2ccccc21 [compound 219] | 61%
O=c1n(C/C=C\CN2CCN(c3ccccc3)CC2)c2ccccc2n1CCN1CCCCC1 [compound 310] | 63%
O=c1n(C/C=C\CN2CCN(c3cccc(C(F)(F)F)c3)CC2)c2ccccc2n1CCN1CCCCC1 [compound 318] | 61%
O=c1n(C/C=C/CN2CCN(c3ccccn3)CC2)c2ccccc2n1CCN1CCCCC1 [compound 330] | 62%
O=c1n(C/C=C/CN2CCc3c([nH]c4ccccc34)C2)c2ccccc2n1CCN1CCCCC1 [compound 333] | 67%
O=c1n(C/C=C/CN2CCN(c3cccc(C(F)(F)F)c3)CC2)c2ccccc2n1CCN1CCCCC1 [compound 335] | 69%
O=c1n(C/C=C\CN2CCN(c3cccc(C(F)(F)F)c3)CC2)c2ccccc2n1CCO [compound 369] | 84%
O=c1n(C/C=C\CN2CC=C(c3ccccc3)CC2)c2ccccc2n1CCO [compound 370] | 52%
CCNC(=O)OCCn1c(=O)n(CC=CCN2CC=C(c3ccccc3)CC2)c2ccccc21 [compound 404] | 60%

Each compound was assayed against T3, 5-HT1A human receptors (Homo sapiens, UniProt P08908) (assay: 5-HT1A Radioligand Receptor Binding Assay ([3H]-8-OH-DPAT, CHO cell membranes)). Settings: not given.
T3 construct: expressed in transfected cells; host or cells: CHO cells
T3 sequence (P08908 1-422): T2 sequence (P08908 1-422)
Protocol: Membranes from CHO cells, expressing 5-HT1A human receptors were suspended in incubation buffer.
The compounds were tested in singlicate at one concentration (10^-7 M) in a total volume of 1000 µl. 980 µl of diluted membranes, 10 µl DMSO or unlabelled ligand and 10 µl of [^3H]-8-OH-DPAT (0.6-0.7 nM) were incubated for 60 min at 27 °C. The reaction was stopped by rapid filtration through Tomtec cell Harvester (48 wells) using Filtermat B (presoaked in 0.1% PEI) filters. […] Non specific binding was determined in the presence of 5-HT (10^-5 M).
as §1
The affinity values (IC50) for the compounds were obtained by a non linear least squares regression analysis on the basis of a one binding site model.

Structure (SMILES) | IC50
O=c1n(CCO)c2ccccc2n1CCCCN1CCN(c2cccc(C(F)(F)F)c2)CC1 [compound 64] | 12 nM

Same assay, conditions: [3H]-8-OH-DPAT displacement, CHO membranes; read-out: 5-HT1A receptor binding IC50

Structure (SMILES) | IC50
COCCn1c(=O)n(CCCCN2CCN(c3cccc(Cl)c3)CC2)c2ccccc21 [compound 5] | 13 nM
Cc1cccc(N2CCN(CCCCn3c(=O)n(CCN4CCCCC4)c4ccccc43)CC2)c1C [compound 37] | 16 nM
O=c1n(CCO)c2ccccc2n1CCCCN1CCN(c2cccc(Cl)c2)CC1 [compound 60] | 6.2 nM
Cc1cccc(N2CCN(CCn3c(=O)n(CCN4CCCCC4)c4ccccc43)CC2)c1C [compound 158] | 13 nM
COCCn1c(=O)n(CCN2CCN(c3cccc(Cl)c3)CC2)c2ccccc21 [compound 164] | 4.2 nM
O=c1n(CCO)c2ccccc2n1CCN1CCN(c2cccc(C(F)(F)F)c2)CC1 [compound 187] | 8.2 nM
CCNC(=O)OCCn1c(=O)n(CCN2CCN(c3ccccc3Cl)CC2)c2ccccc21 [compound 219] | 15 nM
O=c1n(C/C=C/CN2CCN(c3cccc(C(F)(F)F)c3)CC2)c2ccccc2n1CCN1CCCCC1 [compound 335] | 3.5 nM

Same assay, conditions: compound at 10^-7 M, singlicate; [3H]-8-OH-DPAT 0.6-0.7 nM; read-out: 5-HT1A receptor binding assay % inhib. (10^-7 M)

Structure (SMILES) | inhibition at 0.1 µM
COCCn1c(=O)n(CCCCN2CCN(c3cccc(Cl)c3)CC2)c2ccccc21 [compound 5] | 92%
Cc1cccc(N2CCN(CCCCn3c(=O)n(CCN4CCCCC4)c4ccccc43)CC2)c1C [compound 37] | 90%
O=c1n(CCO)c2ccccc2n1CCCCN1CCN(c2cccc(Cl)c2)CC1 [compound 60] | 93%
O=c1n(CCO)c2ccccc2n1CCCCN1CCN(c2cccc(C(F)(F)F)c2)CC1 [compound 64] | 92%
Cc1cccc(N2CCN(CCn3c(=O)n(CCN4CCCCC4)c4ccccc43)CC2)c1C [compound 158] | 95%
COCCn1c(=O)n(CCN2CCN(c3cccc(Cl)c3)CC2)c2ccccc21 [compound 164] | 96%
O=c1n(CCO)c2ccccc2n1CCN1CCN(c2cccc(C(F)(F)F)c2)CC1 [compound 187] | 94%
CCNC(=O)OCCn1c(=O)n(CCN2CCN(c3ccccc3Cl)CC2)c2ccccc21 [compound 219] | 89%
O=c1n(C/C=C\CN2CCN(c3ccccc3)CC2)c2ccccc2n1CCN1CCCCC1 [compound 310] | 85%
O=c1n(C/C=C\CN2CCN(c3cccc(C(F)(F)F)c3)CC2)c2ccccc2n1CCN1CCCCC1 [compound 318] | 92%
O=c1n(C/C=C/CN2CCN(c3ccccn3)CC2)c2ccccc2n1CCN1CCCCC1 [compound 330] | 97%
O=c1n(C/C=C/CN2CCc3c([nH]c4ccccc34)C2)c2ccccc2n1CCN1CCCCC1 [compound 333] | 99%
O=c1n(C/C=C/CN2CCN(c3cccc(C(F)(F)F)c3)CC2)c2ccccc2n1CCN1CCCCC1 [compound 335] | 95%
O=c1n(C/C=C\CN2CCN(c3cccc(C(F)(F)F)c3)CC2)c2ccccc2n1CCO [compound 369] | 96%
O=c1n(C/C=C\CN2CC=C(c3ccccc3)CC2)c2ccccc2n1CCO [compound 370] | 93%
CCNC(=O)OCCn1c(=O)n(CC=CCN2CC=C(c3ccccc3)CC2)c2ccccc21 [compound 404] | 95%

Source: patent EP1322622B1, “NEW N, N'-DISUBSTITUTED BENZIMIDAZOLONE DERIVATIVES WITH AFFINITY AT THE SEROTONIN AND DOPAMINE RECEPTORS” (Sprout Pharmaceuticals, Inc., priority 2000, dated 2002)
